As usually defined, the Ki is a dissociation constant, usually derived from enzyme kinetics or from competition with a known ligand. Low values mean tighter binding, high ones weaker binding.

Consider 16 compounds from patent US8957085B2, “Carboxamide bioisosteres of opiates” (Rensselaer Polytechnic Institute, priority 2010, dated 2015).

In one test the target is human μ opioid receptor (Homo sapiens, UniProt P35372). Nature of the test: Opioid receptor binding assay, [3H]DAMGO (μ).
A further test deals with human δ opioid receptor (Homo sapiens, UniProt P41143). In words: Opioid receptor binding assay, [3H]naltrindole (δ). Particulars: Ki [3H]Naltrindole (δ), membranes of CHO cells expressing human δ opioid receptor; 0.2 nM [3H]naltrindole; mean ± S.E.
Chain of human δ opioid receptor (P41143 whole entry): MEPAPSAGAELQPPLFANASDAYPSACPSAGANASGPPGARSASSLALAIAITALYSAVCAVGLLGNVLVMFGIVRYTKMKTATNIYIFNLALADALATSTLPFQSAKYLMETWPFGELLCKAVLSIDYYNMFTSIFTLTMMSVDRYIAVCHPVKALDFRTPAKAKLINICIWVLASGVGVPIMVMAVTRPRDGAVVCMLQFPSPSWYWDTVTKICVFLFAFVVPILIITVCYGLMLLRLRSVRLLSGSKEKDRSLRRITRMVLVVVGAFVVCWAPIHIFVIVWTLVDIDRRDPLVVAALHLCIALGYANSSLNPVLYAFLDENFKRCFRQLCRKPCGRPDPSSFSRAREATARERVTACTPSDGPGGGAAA
The next test has as its target human κ opioid receptor (Homo sapiens, UniProt P41145). Nature of the test: biochemical.
For test [1] the following is noted: 1 mg/kg ip in mice; cited from earlier work.

Chain of human κ opioid receptor (P41145 whole entry): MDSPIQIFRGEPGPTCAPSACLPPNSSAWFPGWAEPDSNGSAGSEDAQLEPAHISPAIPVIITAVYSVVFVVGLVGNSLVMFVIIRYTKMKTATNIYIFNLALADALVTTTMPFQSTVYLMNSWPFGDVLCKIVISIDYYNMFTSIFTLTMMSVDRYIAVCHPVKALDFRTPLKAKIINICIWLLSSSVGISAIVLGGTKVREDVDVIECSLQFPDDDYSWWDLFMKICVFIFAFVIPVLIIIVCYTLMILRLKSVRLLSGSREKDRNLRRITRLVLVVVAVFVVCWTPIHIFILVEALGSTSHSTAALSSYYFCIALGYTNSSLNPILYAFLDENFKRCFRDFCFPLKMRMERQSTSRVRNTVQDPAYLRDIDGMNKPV
Chain of human μ opioid receptor (P35372 whole entry): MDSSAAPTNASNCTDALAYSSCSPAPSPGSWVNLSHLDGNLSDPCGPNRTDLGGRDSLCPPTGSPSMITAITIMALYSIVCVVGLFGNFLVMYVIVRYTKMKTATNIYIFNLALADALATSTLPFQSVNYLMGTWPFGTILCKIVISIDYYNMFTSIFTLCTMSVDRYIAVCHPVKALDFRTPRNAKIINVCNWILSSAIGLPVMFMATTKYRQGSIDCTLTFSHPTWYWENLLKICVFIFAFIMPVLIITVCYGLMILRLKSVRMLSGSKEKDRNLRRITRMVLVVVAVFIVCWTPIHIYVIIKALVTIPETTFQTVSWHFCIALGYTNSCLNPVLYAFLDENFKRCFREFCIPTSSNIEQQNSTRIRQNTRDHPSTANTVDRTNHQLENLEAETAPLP

With `CC1C2Cc3ccc(C(=O)NCCc4ccc(-c5ccc(C#N)cc5)cc4)cc3C1(C)CCN2CC1CC1` (racemic) [Compound 9], the Ki on human μ opioid receptor came out at 0.017 ± 0.00075 nM; at human δ opioid receptor, 3 ± 0.11 nM; on human κ opioid receptor, 1 ± 0.095 nM.

With `CC(C)Oc1cccc(-c2ccc(CCNC(=O)c3ccc4c(c3)C3(C)CCN(CC5CC5)C(C4)C3C)cc2)c1` (racemic) [Compound 6], the Ki at human μ opioid receptor worked out at 0.43 ± 0.041 nM; at human δ opioid receptor it was 3.9 ± 1.4 nM; at human κ opioid receptor, 2.4 ± 0.25 nM.

As to `CC1C2Cc3ccc(C(=O)NCCc4ccc(-c5ccc(C=O)cc5)cc4)cc3C1(C)CCN2CC1CC1` (racemic) [Compound 10], the Ki on human μ opioid receptor came out at 0.002 ± 0.00029 nM; at human δ opioid receptor it was 2.5 ± 0.12 nM; on human κ opioid receptor, 1.8 ± 0.038 nM.

In the case of `CC1C2Cc3ccc(C(=O)NCCc4ccc(-c5ccc6c(c5)OCO6)cc4)cc3C1(C)CCN2CC1CC1` (racemic) [Compound 8], the Ki is 1 ± 0.12 nM on human δ opioid receptor and 0.73 ± 0.049 nM at human κ opioid receptor.

With `C[C@H]1C2Cc3ccc(C(=O)NCCc4ccc(-c5ccc(C(N)=O)cc5)cc4)cc3[C@@]1(C)CCN2CC1CC1` (racemic) [Compound 34], the Ki was 0.0052 ± 0.00055 nM on human μ opioid receptor, 1 ± 0.018 nM at human δ opioid receptor and 0.91 ± 0.066 nM on human κ opioid receptor.

For the compound `CC(C)Oc1ccccc1-c1ccc(CCNC(=O)c2ccc3c(c2)C2(C)CCN(CC4CC4)C(C3)C2C)cc1` (racemic) [Compound 7], the Ki at human δ opioid receptor came to 0.55 ± 0.025 nM; at human κ opioid receptor, 1.8 ± 0.17 nM.

As to `CC(C)Oc1ccc(-c2ccc(CCNC(=O)c3ccc4c(c3)C3(C)CCN(CC5CC5)C(C4)C3C)cc2)cc1` (racemic) [Compound 5], the Ki at human μ opioid receptor amounted to 0.23 ± 0.041 nM; on human δ opioid receptor it was 1.9 ± 0.21 nM.

In the case of `C[C@H]1C2Cc3ccc(C(N)=O)cc3[C@@]1(C)CCN2CC1CC1` [Compound 8-CAC, 8-carboxamidocyclazocine], in test [1], the “duration of action (antinociception)” value is 15 h.

For the compound `CC1C2Cc3ccc(C(=O)NCCc4ccc(-c5ccc(O)cc5)cc4)cc3C1(C)CCN2CC1CC1` (single isomer, unassigned) [Compound 1A], the Ki stood at 0.78 ± 0.05 nM at human δ opioid receptor and 0.36 ± 0.018 nM on human κ opioid receptor.

Turning to `C[C@H]1[C@H]2Cc3ccc(O)cc3[C@]1(C)CCN2CC1CC1` [cyclazocine], the “duration of action (antinociception)” value in test [1] is 2 h.

Take `C[C@H]1C2Cc3ccc(C(=O)NCCc4ccc(-c5ccc(C(=O)O)cc5)cc4)cc3[C@@]1(C)CCN2CC1CC1` (racemic) [Compound 35]: the values for the Ki on human μ opioid receptor, on human δ opioid receptor and at human κ opioid receptor were 2.3 ± 0.16 nM, 68 ± 9 nM and 55 ± 4.1 nM, respectively.

On to `COc1ccc(-c2ccc(CCNC(=O)c3ccc4c(c3)C3(C)CCN(CC5CC5)C(C4)C3C)cc2)c(C)c1` (racemic) [Compound 3], for which the results for the Ki on human μ opioid receptor, on human δ opioid receptor and at human κ opioid receptor were 0.23 ± 0.0056 nM, 1.1 ± 0.18 nM and 1.3 ± 0.11 nM, respectively.

`CC1C2Cc3ccc(C(=O)NCCc4ccc(-c5ccc(O)cc5)cc4)cc3C1(C)CCN2CC1CC1` (racemic) [Compound 1]: the Ki on human δ opioid receptor came to 0.81 ± 0.12 nM; at human κ opioid receptor it was 0.49 ± 0.011 nM.

Turning to `CCOc1ccc(-c2ccc(CCNC(=O)c3ccc4c(c3)C3(C)CCN(CC5CC5)C(C4)C3C)cc2)cc1` (racemic) [Compound 4], the results for the Ki at human δ opioid receptor and on human κ opioid receptor were 3.4 ± 0.039 nM and 3.3 ± 0.32 nM, respectively.

On to `COc1ccc(-c2ccc(CCNC(=O)c3ccc4c(c3)C3(C)CCN(CC5CC5)C(C4)C3C)cc2)cc1C` (racemic) [Compound 2], for which affinity on human δ opioid receptor was put at a Ki of 1.5 ± 0.14 nM.

Regarding `COC(=O)c1ccc(-c2ccc(CCNC(=O)c3ccc4c(c3)[C@@]3(C)CCN(CC5CC5)C(C4)[C@@H]3C)cc2)cc1` (racemic) [Compound 36], the Ki at human μ opioid receptor amounted to 0.0091 ± 0.00071 nM; at human δ opioid receptor, 1.5 ± 0.062 nM; at human κ opioid receptor it was 1.1 ± 0.13 nM.
